Experimental data taken from US20170313669A1, “LACTONE COMPOUNDS AND METHODS OF MAKING AND USING SAME” (THE SCRIPPS RESEARCH INSTITUTE, priority 2015, published 2017).

Target: T1, ABHD16A (Homo sapiens, UniProt O95870)
T1 sequence (O95870 1-558): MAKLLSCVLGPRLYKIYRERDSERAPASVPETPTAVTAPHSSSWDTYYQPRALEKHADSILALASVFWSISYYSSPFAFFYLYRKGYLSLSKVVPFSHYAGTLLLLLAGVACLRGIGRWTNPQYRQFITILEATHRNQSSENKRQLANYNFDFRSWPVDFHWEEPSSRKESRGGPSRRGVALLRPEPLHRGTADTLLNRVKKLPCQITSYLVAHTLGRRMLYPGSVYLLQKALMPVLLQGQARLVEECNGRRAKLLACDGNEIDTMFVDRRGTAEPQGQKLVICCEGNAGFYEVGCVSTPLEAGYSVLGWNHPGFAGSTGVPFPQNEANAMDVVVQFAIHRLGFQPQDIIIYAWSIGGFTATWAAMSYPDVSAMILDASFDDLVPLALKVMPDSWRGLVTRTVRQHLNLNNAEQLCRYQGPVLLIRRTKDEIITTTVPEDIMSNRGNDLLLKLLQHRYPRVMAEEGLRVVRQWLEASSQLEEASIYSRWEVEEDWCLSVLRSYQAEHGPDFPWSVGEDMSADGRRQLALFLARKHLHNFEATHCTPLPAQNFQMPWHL
Experiment: PS substrate assay, human ABHD16A-transfected HEK293T membrane proteome
Format: biochemical
Set-up: transiently transfected with 12 μg of the full-length cDNA of human ABHD16A (Open Biosystems Catalog # MHS6278-202758315); host or cells: HEK293T, transient, pCMV-SPORT6
Protocol: HEK293T cells were grown to 40% confluence in a 15 cm dish in 25 mL of Dulbecco's modified Eagle medium (DMEM) supplemented with L-glutamine and 10% (vol/vol) FCS at 37° C. and 5% CO2 (vol/vol). The cells were transiently transfected with 12 μg of the full-length cDNA of human ABHD16A (Open Biosystems Catalog # MHS6278-202758315) or murine ABHD16A (Open Biosystems Catalog # MMM1013-202760516) in pCMV-SPORT6 vector using 40 μg polyethyleneimine “MAX” (MW 40,000) (PEI) (Polysciences Inc. Catalog #24765) as the transfection reagent as per manufacturer's instructions. As a “mock” control, an empty vector was transiently transfected. […] Protein concentration was measured using the Bio-Rad DC Protein Assay Kit as per manufacturer's protocol, and ABHD16A expression was confirmed using gel-based ABPP.
All the lipid species used in the lipid substrate hydrolysis assays were purchased from Avanti Polar Lipids Inc unless mentioned otherwise. […] All the data was collected and analyzed using the Agilent MassHunter Workstation software version B.04 using the Data Acquisition and Quantitative Analysis programs respectively. Measuring the area under the peak, and normalizing it to the internal standard quantified the product release for the lipid substrate hydrolysis assays. […] Some products from the substrate hydrolysis assays were detected in positive ion mode for qualitative identification. […]

CCCCCCCCCCCCCC1OC(=O)/C1=C\CCCCC(N)=O (stereo not shown) [KC01, (Z)-6-(2-oxo-4-tridecyloxetan-3-ylidene)hexanamide]
IC50: 90 ± 20 nM
